Assay results taken from the NIST ThermoML archive (doi:10.1021/je034251+).
Numbers after ± are expanded uncertainties.

Conditions: for mass density: isochoric method

COC [dimethyl ether]
Conditions	Critical temperature [K]	mass density [kg/m3]
301.82 K, Liquid	–	654.54 ± 0.33
320.08 K, Liquid	–	623.9 ± 0.33
330.63 K, Liquid	–	604.34 ± 0.33
339.47 K, Liquid	–	585.82 ± 0.33
347.34 K, Liquid	–	567.13 ± 0.32
359 K, Liquid	–	540.45 ± 0.32
365.69 K, Liquid	–	522.25 ± 0.32
366.69 K, Gas	–	66.75 ± 0.2
372.15 K, Liquid	–	503.13 ± 0.32
378.81 K, Liquid	–	479.19 ± 0.32
380.95 K, Gas	–	96.42 ± 0.2
384.5 K, Liquid	–	454.66 ± 0.32
390.86 K, Gas	–	130.05 ± 0.21
393.65 K, Liquid	–	405.87 ± 0.32
396.06 K, Gas	–	161.3 ± 0.22
398.21 K, Liquid	–	361.58 ± 0.34
399.34 K, Gas	–	203.55 ± 0.28
400.32 K, Liquid	–	299.12 ± 0.43
400.35 K, Gas	–	253.84 ± 0.54
400.35 K, Liquid	–	285.01 ± 0.47
400.36 K, Gas	–	264.02 ± 0.63
400.36 K, Liquid	–	278.92 ± 0.49
400.38 K, Liquid	–	276.19 ± 0.5
Liquid, Visual observation in an unstirred cell	400.38 ± 0.062	–

Conditions	Critical density [kg/m3]
Liquid	272 ± 2
